Results as given in US6251899A, “Methoximinomethyloxadiazines” (Bayer Aktiengesellschaft, priority 1997, dated 2001).
Like-named read-outs stand apart in the source and are kept apart here.

Legend:
[1] = logP by HPLC (EEC Directive 79/831 Annex V. A8, gradient method, acetonitrile/0.1% aqueous phosphoric acid); assay type: physicochemical
Method: *The logP values were determined in accordance with EEC Directive 79/831
Annex V. A8 by HPLC (gradient method, acetonitrile/0.1% aqueous phosphoric

Plasmopara viticola = test: Plasmopara test (grapevine)/protective; details: 144 h
Venturia inaequalis = test: Venturia test (apple)/protective; details: 288 h
[2] = read-out: Efficacy, grapevine, protective, 100 g/ha, 6 days after inoculation
[3] = read-out: Efficacy, apple, protective, 10 g/ha, 12 days after inoculation

SMILES	chromatographic logP [1]	pest or weed control at 100 g/ha (Plasmopara viticola; [2])	pest or weed control at 10 g/ha (Venturia inaequalis; [3])	other results
CON=C(C1=NOCCN1)c1ccccc1Oc1ncnc(Sc2ccc(C)cc2)c1F [Example 51]	3.45	≥ 90%		
CON=C1C(=NOCCO)Oc2ccccc21 [benzofuran-2,3-dione 2-[O-(2-hydroxy-ethyl)-oxime] 3-(O-methyl-oxime)]	1.65			logP [1]: 1.79
CON=C(C1=NOCCN1)c1ccccc1Oc1ncnc(Oc2ccc(Cl)cn2)c1F [Example 41]	2.65			
CON=C(C1=NOCCN1)c1ccccc1Oc1ncnc(Oc2ccc(OC(F)(F)C(F)Cl)cc2)c1F (stereo not shown) [Example 33]	3.56			
CON=C(C1=NOCCN1)c1ccccc1Oc1ncnc(Sc2cccc(Br)c2)c1F [Example 52]	3.66			
CON=C(C1=NOCCN1)c1ccccc1Oc1ncnc(Oc2ccc(C)cc2C)c1F [Example 15]	3.38	≥ 90%		
CON=C(C1=NOCCN1)c1ccccc1Oc1ncnc(Oc2cccc(C(C)(C)C)c2)c1F [Example 12]	3.96		≥ 90%	
CON=C1C(=NOCCOS(C)(=O)=O)Oc2ccccc21 [VI-1, benzofuran-2,3-dione 2-[O-(2-methylsulphonyloxy-ethyl)-oxime]3-(O-methyl-oxime)]	2.39			
CON=C(C1=NOCCN1)c1ccccc1Oc1ncnc(Oc2ccccc2Cl)c1F [Example 3]	3.02	≥ 90%	≥ 90%	pest or weed control at 10 g/ha (Venturia inaequalis; read-out: Efficacy): 92%
CON=C(C1=NOCCN1)c1ccccc1Oc1ncnc(Sc2ccc(Br)cc2)c1F [Example 49]	3.69			
CON=C(C1=NOCCN1)c1ccccc1Oc1ncnc(Oc2ccc(SC(F)(F)F)cc2)c1F [Example 32]	3.84			
CON=C(C1=NOCCN1)c1ccccc1Oc1ncnc(Oc2cccc(OC)c2)c1F [Example 23]	2.8		≥ 90%	
CON=C(C1=NOCCN1)c1ccccc1Oc1ncnc(Oc2cccc(Cl)n2)c1F [Example 40]	2.62		≥ 90%	
CON=C(C1=NOCCN1)c1ccccc1Oc1ncnc(Oc2c(C)cccc2C)c1F [Example 19]	3.29	≥ 90%		
CON=C(C1=NOCCN1)c1ccccc1Oc1ncnc(Oc2ccc(Cl)cc2)c1F [Example 6]	3.23	≥ 90%		pest or weed control at 100 g/ha (Plasmopara viticola; read-out: Efficacy): 97%
CON=C(C1=NOCCN1)c1ccccc1Oc1ncnc(SC2CCCCC2)c1F [Example 57]	4.01			
CON=C(C1=NOCCN1)c1ccccc1Oc1ncnc(F)c1F [IV-1, 3-{1-[2-(4,5-difluoropyrimid-6-yloxy)-phenyl]-1-(methoximino)-methyl}-5,6-dihydro-4H-1,2,4-oxadiazine]	1.97			
CON=C(C1=NOCCN1)c1ccccc1Oc1ncnc(Oc2ccc(C(F)(F)F)cc2Cl)c1F [Example 26]	3.76			
CON=C(C1=NOCCN1)c1ccccc1Oc1ncnc(OCc2cccc(Cl)c2)c1F [Example 46]	3.44			
CON=C(C1=NOCCN1)c1ccccc1Oc1ncnc(Oc2cc(C)ccc2C)c1F [Example 16]	3.35			

SMILES	chromatographic logP [1]	pest or weed control at 100 g/ha (Plasmopara viticola; [2])	pest or weed control at 10 g/ha (Venturia inaequalis; [3])	other results
CON=C(C1=NOCCN1)c1ccccc1Oc1ncnc(Oc2cccc3c2OC(C)(C)C3)c1F [Example 31]	3.3		≥ 90%	
CON=C(C1=NOCCN1)c1ccccc1Oc1ncnc(Sc2ccc(Cl)c(C(F)(F)F)c2Cl)c1F [Example 55]	4.3			
CON=C(C)c1ccc(Oc2ncnc(Oc3ccccc3C(=NOC)C3=NOCCN3)c2F)c(C)c1 [Example 42]	3.56			
CON=C(C1=NOCCN1)c1ccccc1Oc1ncnc(Oc2cccnc2)c1F [Example 37]	1.73			
CON=C(C1=NOCCN1)c1ccccc1Oc1ncnc(Oc2cccc(C)c2C)c1F [Example 4]	3.29	≥ 90%	≥ 90%	pest or weed control at 10 g/ha (Venturia inaequalis; read-out: Efficacy): 95%
CON=C(C1=NOCCN1)c1ccccc1Oc1ncnc(Oc2ccc(C)cc2)c1F [Example 21]	3.08		≥ 90%	
CON=C(C1=NOCCN1)c1ccccc1Oc1ncnc(Sc2cccc(Cl)c2)c1F [Example 53]	3.56	≥ 90%		
CON=C(C1=NOCCN1)c1ccccc1Oc1ncnc(Oc2cc(C)ccc2Cl)c1F [Example 18]	3.35			
CON=C(C1=NOCCN1)c1ccccc1Oc1ncnc(SCc2ccccc2)c1F [Example 58]	3.42			
CON=C(C1=NOCCN1)c1ccccc1Oc1ncnc(Oc2ccc(OC(F)(F)F)cc2)c1F [Example 25]	3.54			
CON=C(C1=NOCCN1)c1ccccc1Oc1ncnc(Oc2cccc(Cl)c2)c1F [Example 5]	3.23	≥ 90%	≥ 90%	pest or weed control at 10 g/ha (Venturia inaequalis; read-out: Efficacy): 99%; pest or weed control at 100 g/ha (Plasmopara viticola; read-out: Efficacy): 97%
CON=C(C1=NOCCN1)c1ccccc1Oc1ncnc(Oc2ccc(OC(F)(F)F)cc2Cl)c1F [Example 27]	3.86			
CON=C(C1=NOCCN1)c1ccccc1Oc1ncnc(Oc2ccc(OC(F)(F)F)cc2C)c1F [Example 30]	3.8			
CON=C(C1=NOCCN1)c1ccccc1Oc1ncnc(Sc2ccc(Cl)cc2)c1F [Example 50]	3.57	≥ 90%		
CON=C(C1=NOCCN1)c1ccccc1Oc1ncnc(Oc2ccccc2C2CCCC2)c1F [Example 17]	4.01	≥ 90%	≥ 90%	
CON=C(C1=NOCCN1)c1ccccc1Oc1ncnc(Sc2ccccc2)c1F [Example 48]		≥ 90%	≥ 90%	
CON=C(C1=NOCCN1)c1ccccc1Oc1ncnc(Oc2cccnc2Br)c1F [Example 36]	2.43		≥ 90%	
CON=C(C1=NOCCN1)c1ccccc1Oc1ncnc(Oc2ccc(C)nc2)c1F [Example 35]	1.58			
CON=C(C1=NOCCN1)c1ccccc1Oc1ncnc(Oc2cccc(C(F)(F)F)c2)c1F [Example 24]	3.39		≥ 90%	

Continued, in another order:

chromatographic logP [1]	SMILES	pest or weed control at 100 g/ha (Plasmopara viticola; [2])	pest or weed control at 10 g/ha (Venturia inaequalis; [3])	other results
2.74	COCc1ccccc1Oc1ncnc(Oc2ccccc2C(=NOC)C2=NOCCN2)c1F [Example 61]			
3.04	CCOCc1ccccc1Oc1ncnc(Oc2ccccc2C(=NOC)C2=NOCCN2)c1F [Example 62]			
3.59	CON=C(C1=NOCCN1)c1ccccc1Oc1ncnc(Oc2ccccc2C(C)C)c1F [Example 13]	≥ 90%	≥ 90%	
3.52	CON=C(C1=NOCCN1)c1ccccc1Oc1ncnc(Oc2cccc(Cl)c2C)c1F [Example 2]	≥ 90%	≥ 90%	
3.32	CCc1ccccc1Oc1ncnc(Oc2ccccc2C(=NOC)C2=NOCCN2)c1F [Example 11]	≥ 90%	≥ 90%	
2.95	CON=C(C1=NOCCN1)c1ccccc1Oc1ncnc(Oc2ccccc2SC)c1F [Example 63]			
3.34	CON=C(C1=NOCCN1)c1ccccc1Oc1ncnc(Oc2cccc(C)c2Cl)c1F [Example 59]	≥ 90%	≥ 90%	
3.84	CON=C(C1=NOCCN1)c1ccccc1Oc1ncnc(Oc2ccccc2C(C)(C)C)c1F [Example 22]		≥ 90%	
2.56	CON=C(C1=NOCCN1)c1ccccc1Oc1ncnc(Oc2ccccc2C#N)c1F [Example 29]			
3.4	CCSCc1ccccc1Oc1ncnc(Oc2ccccc2C(=NOC)C2=NOCCN2)c1F [Example 60]			
2.85	CON=C(C1=NOCCN1)c1ccccc1Oc1ncnc(Oc2ccccc2F)c1F [Example 10]	≥ 90%	≥ 90%	
3.38	C=Cc1ccccc1Oc1ncnc(Oc2ccccc2C(=NOC)C2=NOCCN2)c1F [Example 7]	≥ 90%	≥ 90%	
2.7	CON=C(C1=NOCCN1)c1ccccc1Oc1ncnc(Oc2ccccc2OC)c1F [Example 14]	≥ 90%		
2.76	CON=C(C1=NOCCN1)c1ccccc1Oc1ncnc(Oc2ccccc2)c1F [Example 34]	≥ 90%		
3.01	CON=C(C1=NOCCN1)c1ccccc1Oc1ncnc(Oc2ccccc2C)c1F [Example 8]			
3.26	CCSc1ccccc1Oc1ncnc(Oc2ccccc2C(=NOC)C2=NOCCN2)c1F [Example 64]			
3.45	CON=C(C1=NOCCN1)c1ccccc1Oc1ncnc(Oc2cccc(Cl)c2Cl)c1F [Example 1, 3-{1-[2-(4-<2,3-dichlorophenoxy>-5-fluoropyrimid-6-yloxy)-phenyl]-1-(methoximino)-methyl}-5,6-dihydro-4H-1,2,4-oxadiazine]	≥ 90%		
3.08	CON=C(C1=NOCCN1)c1ccccc1Oc1ncnc(Oc2ccccc2Br)c1F [Example 9]	≥ 90%		
2.8	CON=C(C1=NOCCN1)c1ccccc1Oc1ncnc(OCc2ccccc2Cl)c1F [Example 45]			
3.1	CON=C(C1=NOCCN1)c1ccccc1Oc1ncnc(Oc2cccc(C)c2)c1F [Example 20]	≥ 90%	≥ 90%	
